The source of these data is patent publication US7691416B2, “Methods of treating vascular disease” (priority 2002, dated 2010).

This assay concerns graft infiltration by activated leukocytes. As to the kind of experiment: Immunostaining and cell population analysis of the adventitia of aortic grafts. The assay is classed as in vivo, rat. The following applies: 56 days after transplantation. The source says: Animals. Male (250-350 g) Brown Norway rats (RT1^n) were used as aortic graft donors and male (250-350 g) Lewis rats (RT11) as recipients. Dawley (400-450 g) rats were used in the balloon injury model. Adult male C57BL/6, C57/S129, p21^−/− and p53^−/− null mice were purchased from Jackson Laboratory (Bar Harbor, Me.). mkk3^(−/−) null mice were generated as described Lu et al. (EMBO. 18:1845-1857 (1999)). The inos^−/− and enos^−/− mice were bred at the University of Pittsburgh. Aortic transplant model. Aortic transplantation was performed as described in Shimizu et al. (Nat. Med. 7:738-741 (2001)). Briefly, 3 to 4 cm of descending aorta was harvested from the donor and implanted between the renal arteries and the aortic bifurcation of the recipient. Both edges of the native abdominal aorta were ligated. Balloon injury model. Balloon angioplasty was carried out as described in Murakami et al. (Atherosclerosis 157:361-368 (2001)). Briefly, a 2 Fr. arterial embolectomy catheter (Baxter, Chicago, Ill.) was inserted into the common carotid artery, and injury was created by inflating the balloon to 5 atmospheres of pressure for 5 minutes. The arteries were flushed and the external carotid artery was ligated, ensuring return of blood flow through the common and internal carotid arteries. Injury of the vessel wall and subsequent pathological analysis was made in a manner that was blinded to the treatment group. CO exposure. CO was delivered to animals as described in Otterbein et al. (Nat. Med. 6:422-428 (2000)). […] In the balloon injury model, rats received either no pretreatment or were exposed to CO (250 ppm) for one hour prior to injury. Following surgery rats were housed in room air for two weeks. Cells. Primary mouse and rat smooth muscle cells (SMC) were isolated and cultured as described in Laubach et al. (Proc Natl Acad Sci USA 92:10688-9 (1995)). Mouse SMC isolated from HO-1^−/− mice were obtained as described in Duckers et al. (Nat. Med. 7:693-698 (2001)). Cell treatment and reagents. Guanylate cyclase inhibitor 1H(1,2,4) oxadiazolo(4,3-a)quinoxalin-1 (ODQ; Calbiochem-Novabiochem, San Diego, Calif.; 10-100 μM) and p38 MAPK inhibitor pyridinyl imidazol SB203580 (Calbiochem; 5-20 μM) were dissolved in DMSO. The cGMP analogue 8-bromo-cGMP sodium salt (8-Br-cGMP; Sigma-Aldrich, St. Louis, Mo.; 10-100 μM) and the PKG inhibitor (10-100 μM; Alexis Biochemicals) were dissolved in water. […] [^3H]thymidine incorporation was measured by scintillation spectroscopy and presented as mean counts/min/well. […] Areas from eight to ten captured images were calculated using digital imaging software as number of pixels corresponding to those areas. Twenty-four to forty-eight sections from each group were statistically analyzed with SPSS software version 10. […]

[1] abbreviates: adventitia of allogeneic aortic grafts.

Turning to `[C-]#[O+]` [CO, carbon monoxide], under setting [1], the “Accumulation of CD45+/CD3+ T cells, inhibition versus air treated controls” value stood at 57±22%; the “Accumulation of CD45+/CD68+ monocyte/macrophages, inhibition versus air treated controls” value turned out to be 65±24%; the “Expression of MHC II antigens and CD54/ICAM-1 (Mø activation)” value is reported as “inhibited”. In addition, under “maximal effect, 700 to 1000 ppm of CO”, the “Graft infiltration by activated leukocytes (CD45+), inhibition versus air treated controls” value was found to be 52±20%.
